Read-outs that look alike come from different tables or passages of the source.
Biological target: Pim-1 kinase (Homo sapiens, UniProt P11309)
Assay: Pim-1 kinase inhibition assay (Promega Kinase-Glo)
Format: biochemical
Excerpt: One illustrative manner in which Pim-1 kinase activity can be determined is by quantifying the amount of ATP remaining in solution after an in vitro Pim-1 kinase reaction. The Kinase-Glo Assay Kit (Promega, Inc., Madison, WI) allows this. The amount of ATP remaining in the solution after the kinase reaction serves as a substrate for the luciferase to catalyze luciferin to oxyluciferin plus one photon of light. Thus, the luminescent signal read by the Luminoskan Ascent Instrument (Thermo Electron Corp., Milford, MA) correlates with the amount of ATP present after the kinase reaction and inversely correlates with the amount of kinase acitivity. […] These assays are set up in duplicate 50ul volumes in white, flat bottom 96 well plates. […] This solution is incubated at 30 degrees Celsius at 360rpm for two hours. Following the incubation, 50ul of Kinase-Glo reagent is added to each well, including all positive and negative control wells, and incubated at room temperature for 15 minutes. […] The IC50 values can then be calculated for each inhibitor tested.

[1] = Table IV, Kinase-Glo, 10uM ATP, read-out: IC50 on Pim1
[2] = Table V, Kinase-Glo, 10uM ATP, read-out: IC50 on Pim1
[3] = Table V, cells that print µM, read-out: IC50 on Pim1

Pim-1 kinase, sequence (P11309 whole entry): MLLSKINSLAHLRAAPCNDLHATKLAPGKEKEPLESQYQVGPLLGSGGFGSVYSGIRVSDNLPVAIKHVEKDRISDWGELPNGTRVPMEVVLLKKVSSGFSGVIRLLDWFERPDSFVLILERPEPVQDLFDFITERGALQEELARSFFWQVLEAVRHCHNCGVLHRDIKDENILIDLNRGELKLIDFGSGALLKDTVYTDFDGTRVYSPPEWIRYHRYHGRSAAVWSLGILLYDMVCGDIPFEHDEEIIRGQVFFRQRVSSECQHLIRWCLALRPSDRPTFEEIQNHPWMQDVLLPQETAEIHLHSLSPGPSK

| IC50 [1] [µM] | SMILES | further results |
| --- | --- | --- |
| 0.186 | Clc1cccc(-c2cnn3ccc(NC4CCOCC4)nc23)c1 [8-65, 3-(3-Chlorophenyl)-N-(tetrahydro-2H-pyran-4-yl)pyrazolo[1,5-a]pyrimidin-5-amine] |  |
| 0.012 | N[C@H]1CCCN(c2ccc3ncc(-c4cccc(Cl)c4)n3n2)C1 [8-71, (S)-1-(3-(3-chlorophenyl)imidazo[1,2-b]pyridazin-6-yl)piperidin-3-amine] |  |
|  | FC(F)(F)Oc1cccc(-c2nnc3ccc(N[C@H]4CC[C@@H](Br)CC4)cn23)c1 [8-105, 4-(cis-Bromocyclohexyl)-3-(3-(trifluoromethoxy)phenyl)-(1,2,4]triazolo[4,3-a]pyridin-6-amine] | IC50 [2]: 2.49 µM |
| 0.149 | FC(F)(F)c1cccc(-c2cnn3ccc(NC4CCOCC4)nc23)c1 [8-58, N-(Tetrahydro-2H-pyran-4-yl)-3-(3-(trifluoromethyl)phenyl)pyrazolo[1,5-a]pyrimidin-5-amine] |  |
| 0.03 | CC(C)(O)CCNc1ccc2ncc(-c3cccc(OC(F)(F)F)c3)n2n1 [8-3, 2-Methyl-4-((3-(3-(trifluoromethoxy)phenyl)imidazo[1,2-b]pyridazin-6-yl)amino)butan-2-ol] |  |
| 0.164 | O=S1(=O)CCC(CNc2ccn3ncc(-c4cccc(Cl)c4)c3n2)CC1 [8-66, 4-(((3-(3-Chlorophenyl)pyrazolo[1,5-a]pyrimidin-5-yl)amino)methyl)tetrahydro-2H-thiopyran 1.1-dioxide] |  |
|  | FC(F)(F)Oc1cccc(-c2nnc3ccc(NC4CCOCC4)cn23)c1 [8-102, N-(Tetrahydro-2H-pyran-4-yl)-3-(3-(trifluoromethoxy)phenyl)-[1,2,4]triazolo[4,3-a]pyridin-6-amine] | IC50 [2]: 3.25 µM |
| 0.016 | CC(C)(O)C(=O)N1CCC(CNc2ccc3ncc(-c4cccc(OC(F)(F)F)c4)n3n2)CC1 [8-20, 2-Hydroxy-2-methyl-1-(4-(((3-(3-(trifluoromethoxy)phenyl)imidazo[1,2-b]pyridazin-6-yl)amino)methyl)piperidin-1-yl)propan-1-one] |  |
| 0.503 | CC(C)O[C@H]1CC[C@H](Nc2ccc3ncc(-c4cccc(OC(F)(F)F)c4)n3n2)CC1 [8-16, 4-(trans-Isopropoxycyclohexyl)-3-(3-(trifluoromethoxy)phenyl)imidazo[1,2-b]pyridazin-6-amine] |  |
| 0.03 | CC(C)(O)CNc1ccc2ncc(-c3cccc(OC(F)(F)F)c3)n2n1 [8-6, 2-Methyl-1-((3-(3-(trifluoromethoxy)phenyl)imidazo[1.2-b]pyridazin-6-yl)amino)propan-2-ol] |  |
|  | FC(F)(F)c1cccc(-c2nnc3ccc(NC4CCOCC4)cn23)c1 [8-110, N-(Tetrahydro-2H-pyran-4-y/)-3-(3-(trifluoromethy/)pheny/)-[1,2,4]triazolo[4,3-a]pyridin-6-amine] | IC50 [2]: 3.17 µM |
|  | O[C@H]1CC[C@H](Nc2ccc3nnc(-c4cccc(C(F)(F)F)c4)n3c2)CC1 [8-107, 4-((3-(3-(Trifluoromethyl)phenyl)-[1,2,4]triazolo[4,3-a]pyridin-6-yl)amino)-trans-cyclohexanol] | IC50 [2]: 3.95 µM |
| 1.97 | COCCOc1ccc2ncc(-c3cccc(OC(F)(F)F)c3)n2n1 [8-42, 6-(2-Methoxyethoxy)-3-(3-(trifluoromethoxy)phenyl)imidazo[1,2-b]pyridazine] |  |
| 0.023 | CC(C)(O)[C@H]1CC[C@H](Nc2ccn3ncc(-c4cccc(Cl)c4)c3n2)CC1 [8-63] |  |
|  | CC(C)(O)[C@H]1CC[C@H](Nc2ccc3nnc(-c4cccc(C(F)(F)F)c4)n3c2)CC1 [8-109] | IC50 [2]: 3.87 µM |
|  | O=S1(=O)CCC(CNc2ccc3nnc(-c4cccc(OC(F)(F)F)c4)n3c2)CC1 [8-103, 4-(((3-(3-(Trifluoromethoxy)phenyl)-[1,2,4]triazolo[4,3-a]pyridin-6-y/)amino)methyl)tetrahydro-2H-thiopyran 1,1-dioxide] | IC50 [2]: 3.8 µM |
|  | FC1(F)CCC(CNc2ccc3ncc(-c4cccc(OC(F)(F)F)c4)n3n2)CC1 [8-17, N-((4,4-difluorocyclohexyl)methyl)-3-(3-(trifluoromethoxy)phenyl)imidazo[1,2-b]pyridazin-6-amine] | IC50: 0.173 µM |

| IC50 [1] [µM] | SMILES | further results |
| --- | --- | --- |
| 0.048 | Clc1cccc(-c2cnc3ccc(NC4CCOCC4)nn23)c1 [8-39, 3-(3-Chlorophenyl)-N-(tetrahydro-2H-pyran-4-yl)imidazo[1,2-b]pyridazin-6-amine] |  |
| 0.633 | FC(F)(F)Oc1cccc(-c2cnn3ccc(NC4CCOCC4)nc23)c1 [8-50, N-(Tetrahydro-2H-pyran-4-yl)-3-(3-(trifluoromethoxy)phenyl)pyrazolo[1,5-a]pyrimidin-5-amine] |  |
| 0.007 | O[C@H]1CC[C@H](Oc2ccc3ncc(-c4cccc(OC(F)(F)F)c4)n3n2)CC1 [8-4, 4-((3-(3-(Trifluoromethoxy)phenyl)imidazo[1,2-b]pyridazin-6-yl)oxy)-trans-cyclohexanol] |  |
|  | OCCOc1ccc2nnc(-c3cccc(C(F)(F)F)c3)n2c1 [8-112, 2-((3-(3-(trifluoromethyl)phenyl)-[1,2,4]triazolo[4,3-a]pyridin-6-yl)oxy)ethanol] | IC50 [3]: > 30 µM |
| 0.013 | FC(F)(F)Oc1cccc(-c2cnc3ccc(NCC4CCOCC4)nn23)c1 [8-19, N-((tetrahydro-2H-pyran-4-yl)methyl)-3-(3-(trifluoromethoxy)phenyl)imidazo[1,2-b]pyridazin-6-amine] |  |
| 0.005 | N[C@H]1CC[C@H](Nc2ccn3ncc(-c4cccc(OC(F)(F)F)c4)c3n2)CC1 [8-52, N-(3-(3-(Trifluoromethoxy)phenyl)pyrazolo[1,5-a]pyrimidin-5-yl)cyclohexane-1,4-trans-diamine] |  |
| 0.2 | O=S1(=O)CCC(CNc2ccc3ncc(-c4cccc(Cl)c4)n3n2)CC1 [8-40] |  |
| 0.03 | N[C@H]1CCCN(c2ccc3ncc(-c4cccc(OC(F)(F)F)c4)n3n2)C1 [8-25, (S)-1-(3-(3-(Trifluoromethoxy)phenyl)imidazo[1,2-b]pyridazin-6-yl)piperidin-3-amine] |  |
|  | O[C@H]1CC[C@H](Nc2ccc3nnc(-c4cccc(OC(F)(F)F)c4)n3c2)CC1 [8-104, 4-((3-(3-(Trifluoromethoxy)phenyl)-[1,2,4]triazolo[4,3-a]pyridin-6-yl)amino)-trans-cyclohexanol] | IC50 [2]: 0.684 µM |
|  | O=S1(=O)CCC(CNc2ccc3nnc(-c4cccc(C(F)(F)F)c4)n3c2)CC1 [8-111] | IC50 [3]: > 30 µM |
| 0.046 | O=C(CN1CCOCC1)N1CCC(CNc2ccc3ncc(-c4cccc(OC(F)(F)F)c4)n3n2)CC1 [8-21, 2-Morpholino-1-(4-(((3-(3-(trifluoromethoxy)phenyl)imidazo[1,2-b]pyridazin-6-yl)amino)methyl)piperidin-1-yl)ethanone] |  |
| 0.045 | CN1CCC(CNc2ccn3ncc(-c4cccc(OC(F)(F)F)c4)c3n2)CC1 [8-67, N-((1-Methylpiperidin-4-yl)methyl)-3-(3-(trifluoromethoxy)phenyl)pyrazolo[1,5-a]pyrimidin-5-amine] |  |
| 0.226 | CC(C)(O)CCOc1ccc2ncc(-c3cccc(OC(F)(F)F)c3)n2n1 [8-41, 2-Methyl-4-((3-(3-(Trifluoromethoxy)phenyl)imidazo[1,2-b]pyridazin-6-yl)oxy)butan-2-ol] |  |
| 1.19 | O=S1(=O)CCC(Nc2ccc3ncc(-c4cccc(OC(F)(F)F)c4)n3n2)CC1 [8-14, 4-((3-(3-(Trifluoromethoxy)pheny/)imidazo[1,2-]pyridazin-6-yl)amino)tetrahydro-2H-thiopyran 1,1-dioxide] |  |
| 0.094 | N[C@H]1CCCN(c2ccn3ncc(-c4cccc(Cl)c4)c3n2)C1 [8-96, (S)-1-(3-(3-chlorophenyl)pyrazolo[1,5-a]pyrimidin-5-yl)piperidin-3-amine] |  |
| 0.204 | CC(C)(O)[C@H]1CC[C@H](Nc2ccn3ncc(-c4cccc(OC(F)(F)F)c4)c3n2)CC1 [8-47] |  |
|  | CC(C)(O)[C@H]1CC[C@H](Nc2ccc3nnc(-c4cccc(OC(F)(F)F)c4)n3c2)CC1 [8-101] | IC50 [2]: 0.488 µM |

| SMILES | IC50 [1] [µM] | further results |
| --- | --- | --- |
| NC1CCCC(Nc2ccc3ncc(-c4cccc(Cl)c4)n3n2)C1 (centres unmarked) [8-70, N^1-(3-(3-chlorophenyl)imidazo[1,2-b]pyridazin-6-yl)cyclohexane-1,3-diamine] | 0.008 |  |
| FC(F)(F)c1cccc(-c2cnc3ccc(NC4CCOCC4)nn23)c1 [8-33, N-(Tetrahydro-2H-pyran-4-yl)-3-(3-(trifluoromethyl)phenyl)imidazo[1,2-b]pyridazin-6-amine] | 0.033 |  |
| O=S1(=O)CCN(c2ccc3ncc(-c4cccc(OC(F)(F)F)c4)n3n2)CC1 [8-15, 4-(3-(3-(Trifluoromethoxy)phenyl)imidazo[1,2-b]pyridazin-6-yl)thiomorpholine 1,1-dioxide] | 2.83 |  |
| ON=C1CCC(Nc2ccc3ncc(-c4cccc(Cl)c4)n3n2)CC1 (centres unmarked) [8-92, 4-((3-(3-chlorophenyl)imidazo[1,2-b]pyridazin-6-yl)amino)cyclohexanone oxime] | 0.038 |  |
| CO[C@H]1CC[C@H](Nc2ccn3ncc(-c4cccc(OC(F)(F)F)c4)c3n2)CC1 [8-49, 4-(trans-Methoxycyclohexyl)-3-(3-(trifluoromethoxy)phenyl)pyazolo[1,5-a]pyrimidin-5-amine] | 0.378 |  |
| NCC1CCN(c2ccc3ncc(-c4cccc(OC(F)(F)F)c4)n3n2)C(=O)C1 (centres unmarked) [8-24, 4-(Aminomethyl)-1-(3-(3-(trifluoromethoxy)phenyl)imidazo[1,2-b]pyridazin-6-y/)piperidin-2-one] | 0.034 |  |
